Reference: patent US20050256056A1, “Peptide inhibitors of HIV” (priority 2003, published 2005)
Where two headings read alike, the source gives them in different places. Non-standard residues stand in square brackets, D forms with d. Residues, ends and D or L forms follow the SMILES beside them.

Legend:
HIV-1 NL4-3 = test: focal infectivity assay, inhibition of HIV-1 NL4-3 in HeLa H1-JC.37 cells; format: cell-based
Description: The term “EC50” refers to the concentration of peptide that inhibits 50% viral activity, including infective activity, as measured in an in vitro assay, including a focal infectivity assay (described in Pincus, et al. Biotechniques 10:336 (1991)).
Peptides and peptide analogs that bind to an HIV target protein of interest are then screened for their effectiveness in inhibiting HIV activity in vitro. One assay for evaluating HIV inhibiting activity in vitro is a focal infectivity assay, described by Pincus, et al. Biotechniques 10:336 (1991). Preferred peptides and peptide analogs will inhibit HIV activity in vitro at a concentration of about 50 μM or less, more preferably at about 40 μM, 30 μM, 25 μM or 20 μM or less, and more preferably at about 15 μM, 10 μM or 5 μM or less.
After re-synthesis of 16 of these as soluble peptides, 13 were tested for ability to inhibit the NL4-3 clone of HIV-1 (the other 3 were insoluble). For these studies a focal infectivity assay was carried out using HeLa H1-JC.37 cells. H1-JC.37 cells are HeLa cells that naturally express the CXCR4 receptor and that have been engineered to express CD4 and CCR5 receptors (Platt, et al. J. Virol. 72:2855 (1998)). Dose-response curves were performed in triplicate experiments with 6 determinations per drug concentration in each experiment. None of these peptides inhibited growth of HeLa H1-JC.37 cells at the concentrations tested (up to 100 μM). […] The purified peak fraction was re-tested for anti-HIV activity, and the EC50 was determined to be 8 μM. The identity of the biologically active peptide has been confirmed with mass spectrometry.

ogp140 = target: T1, ogp140 (Human immunodeficiency virus type 1 group M subtype B, UniProt P19550); format: binding, HIV-1 SF162 strain; details: Table 2 peptides re-synthesized on beads
T1 construct: ogp140, which contains gp120 and the ectodomain of the gp41 subunit in a trimeric form; purchased Chiron Corporation (gift from Dr. Indresh Srivastava, not a purchase)
T1 sequence (P19550 32-675): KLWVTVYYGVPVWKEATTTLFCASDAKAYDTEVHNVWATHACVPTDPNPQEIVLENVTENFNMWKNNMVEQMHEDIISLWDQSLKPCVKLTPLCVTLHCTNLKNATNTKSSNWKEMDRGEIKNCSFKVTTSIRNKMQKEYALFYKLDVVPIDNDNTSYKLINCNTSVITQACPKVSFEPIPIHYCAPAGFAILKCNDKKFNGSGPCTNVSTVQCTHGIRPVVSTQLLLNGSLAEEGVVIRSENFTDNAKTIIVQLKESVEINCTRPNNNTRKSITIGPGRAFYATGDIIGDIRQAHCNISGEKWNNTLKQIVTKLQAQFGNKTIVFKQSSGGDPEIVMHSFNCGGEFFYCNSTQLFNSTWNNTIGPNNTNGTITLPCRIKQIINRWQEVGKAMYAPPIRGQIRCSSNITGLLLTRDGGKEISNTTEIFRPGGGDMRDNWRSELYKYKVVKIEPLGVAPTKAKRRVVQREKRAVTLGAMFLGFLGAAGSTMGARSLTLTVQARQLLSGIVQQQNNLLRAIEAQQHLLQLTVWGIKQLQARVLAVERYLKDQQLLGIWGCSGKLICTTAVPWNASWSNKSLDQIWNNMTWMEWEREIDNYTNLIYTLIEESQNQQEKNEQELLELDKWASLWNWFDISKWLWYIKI
Description: The optimal concentrations of glycoproteins for our screening assays were determined to be 0.25-1.25 μg/ml for ogp140 and 1-5 μg/ml for gp120. In order to visualize beads with bound ogp140 or gp120, these proteins were biotinylated so that an enzyme-linked colorimetric assay could be used to identify positive beads. Biotinylation was performed with Sulpho-NHS-biotin at a 5:1 molar ratio of biotin to protein. Reactions were carried out for both 3 minutes and 10 minutes to obtain different levels of biotinylation and were stopped with 2 M Tris-HCl, pH 7.4. The proteins were dialyzed for 4-5 hr to remove excess biotin.
The peptides of Table 2 were re-synthesized on beads.
These secondary libraries were screened with ogp140 under higher stringency (lower protein concentrations of both ogp140 and streptavidin-alkaline phosphatase (ST-AP)). The concentrations of ogp140 used in this screen were 0.06 mg/mL and 0.3 mg/mL. These concentrations are 4-fold lower than those used in the original screen (0.25 mg/mL and 1.25 mg/mL). The amount of ST-AP was lowered from 1:15,000 in the original screen to 1:25,000 in this screen. Approximately 75,000 beads from each library were screened.
From the 34 positive beads of the 8-mer library, the 12 darkest beads were selected for sequence analyses and the results are in Table 3.

| SMILES | EC50 (HIV-1 NL4-3; NL4-3) | staining intensity of peptide beads in binding assays with ogp140 (ogp140) | EC50 (HIV-1 NL4-3; HPLC-purified peak fraction re-tested, read-out: EC50 of purified peak fraction, anti-HIV activity) |
| --- | --- | --- | --- |
| CC[C@@H](C)[C@@H](NC(=O)[C@@H](Cc1c[nH]c2ccccc12)NC(=O)[C@@H]1CCCN1C(=O)[C@@H](Cc1ccc(O)cc1)NC(=O)[C@@H](CO)NC(=O)[C@H]1CCCN1C(=O)[C@@H](C)N)C(=O)N[C@H](CCCNC(=N)N)C(=O)O [compound 1] (H-[dA][dP][dS][dY]P[dW][dI][dR]-OH; N-terminus and C-terminus assumed) | > 100 µM |  |  |
| CSCC[C@@H](NC(=O)[C@H](N)Cc1c[nH]cn1)C(=O)N[C@H](CC(N)=O)C(=O)N1CCC[C@H]1C(=O)N[C@H](Cc1ccccc1)C(=O)N[C@H](Cc1ccc(O)cc1)C(=O)N[C@H](Cc1ccc(O)cc1)C(=O)N[C@H](CCC(N)=O)C(=O)O [compound 13] (H-[dH][dM][dN]P[dF][dY][dY][dQ]-OH; N-terminus and C-terminus assumed) | > 100 µM |  |  |
| CC(C)[C@@H](NC(=O)[C@@H](Cc1c[nH]cn1)NC(=O)[C@@H](CC(=O)O)NC(=O)[C@@H](Cc1ccccc1)NC(=O)[C@@H]1CCCN1C(=O)[C@@H](CCC(N)=O)NC(=O)[C@@H](Cc1ccc(O)cc1)NC(=O)[C@H](N)Cc1ccc(O)cc1)C(=O)O [compound 14] (H-[dY][dY][dQ]P[dF][dD][dH][dV]-OH; N-terminus and C-terminus assumed) | 55 µM |  |  |
| CC[C@@H](C)[C@@H](NC(=O)[C@@H](Cc1c[nH]c2ccccc12)NC(=O)[C@@H]1CCCN1C(=O)[C@@H](Cc1ccc(O)cc1)NC(=O)[C@@H](CO)NC(=O)[C@H]1CCCN1C(=O)[C@H](N)CCSC)C(=O)N[C@H](CCCNC(=N)N)C(=O)O [compound 16, mpsyPwir] (H-[dM][dP][dS][dY]P[dW][dI][dR]-OH; N-terminus and C-terminus assumed) | 17 µM | stain more intensively | 8 µM |
